Experimental data taken from patent US20260174780A1, “BISMUTH-THIOL COMPOSITIONS AND METHODS FOR TREATING INFLAMMATORY DISEASES” (Microbion Corporation, priority 2022, published 2026).

What was measured:
[1] = Tolerability of inhaled BisEDT in the M. abscessus mouse study; assay type: in vivo, SCID/Beige mice; settings: inhaled 200 and 1000 μg/kg/day, 28 days
Experimental: A nose-only inhalation exposure chamber from CH technologies was used for this experiment. Mice were split into four treatment groups, Vehicle (buffer containing no BisEDT), amikacin (100 μg/kg/day), BisEDT “low” (200 μg/kg/day), and BisEDT “high” (1000 μg/kg/day). Each treatment group consisted of 12 mice. Ten of these mice were used for CFU determination and two mice are used for histology/pathology/lung pharmacokinetics. Treatment was conducted 6 days a week over the course of 28 days total. To create the correct level of deposited dose of each drug tested, 10 mL of test article were made. Amikacin in HBSS at 20 mg/mL was made and stored at 4° C. until needed. BisEDT “high” at a concentration of 8 mg/mL was made once a week and stored at room temperature. BisEDT “low” was diluted from the 8 mg/mL to 1.6 mg/mL the day of treatment. Each treatment used an LC star reusable nebulizer from Pari. Animals were restrained and placed on the inhalation apparatus. The respiratory hose was connected to the inhalation apparatus and a compressor was connected to the nebulizer. The rate of air flow from the compressor to the nebulizer remained at 8.5 L/minute, which generated a nebulized fog that each mouse breathed in over 45 min.

[2] = test system: TGF-β; assay: TGF-β expression in plasma of M. avium-infected mice; assay type: in vivo; settings: 28 days treatment, low, med and high dose, compared to vehicle
Experimental: Protocol: M. avium infection was initiated in mice, and 3 weeks were allowed to pass to establish the infection. The animals were treated for 28 days and grouped according to dosage: vehicle, low dose pravibismane, med dose pravibismane, and high dose pravibismane. At the end of treatment, plasma samples were collected for analysis.

[3] = test system: M. abscessus clinical strains; assay: Activity in the macrophage system against M. abscessus clinical strains; assay type: cell-based; settings: all three clinical strains tested
[4] = test system: cytokines in bronchoalveolar lavage fluid (BALF); assay: Cytokines in BALF of rats after a single inhaled dose of BisEDT; assay type: in vivo, Sprague-Dawley rats; settings: day 8 compared to day 2; single low (1 mg/kg) or high (7 mg/kg) inhaled dose
Experimental: Two concentrations (low: 1 mg/kg; high: 7 mg/kg) of BisEDT were evaluated by inhalation in rats.
Bronchoalveolar lavage fluid (BALF) samples from day 2 (D2) and day 8 (D8) post treatment were analyzed for the expression of cytokines.
Protocol: Sprague-Dawley rats were randomly assigned to a study group based on body weight. Adult, male Sprague-Dawley rats (n=6 per group) were exposed to the aerosolized test article (TA) with a single dose on Study Day 1. Groups 1, 2, and 3 were exposed by inhalation to 1 mg/kg (targeted presented dose) of BisEDT sample 1, BisEDT sample 2, or BisEDT sample 3, respectively. Groups 4, 5, and 6 were exposed by inhalation to 7 mg/kg (targeted presented dose) of BisEDT sample 1, BisEDT sample 2, or BisEDT sample 3, respectively. Animals were necropsied on Study Days 2, 4, and 8, and terminal blood collections were conducted at that time.
Blood Processing: All blood samples were placed into a tube containing K3EDTA, and mixed thoroughly. Following mixing, blood obtained at the time of euthanasia was divided in half. Half of the blood sample was stored frozen without further processing pending bioanalysis. The remaining half was placed on wet ice before being processed to plasma by centrifugation at 2500×g for ≥10 minutes at 2 to 8° C. Plasma was aliquoted into a cryovial(s), snap frozen in liquid nitrogen, and stored at −80° C.±10° C. until cytokine analysis was performed using ELISA kits following manufacturer's instructions.

[5] = Particle size by Nanosizer/Zetasizer Nano-S (volumetric mean diameter); assay type: physicochemical; settings: resuspended in 2% Pluronic F-68, sonicated; two measurements
Experimental: The dried particulate matter was characterized to assess the particle size properties. Briefly, particles were resuspended in 2% Pluronic® F-68 (BASF, Mt. Olive, NJ) and the suspension was sonicated for 10 minutes in a water bath sonicator at standard setting prior to analysis using a Nanosizer/Zetasizer Nano-S particle analyzer (model ZEN1600 (without zeta-potential measuring capacity), Malvern Instruments, Worcestershire, UK) according to the manufacturer's recommendations.

[6] = test system: M. abscessus strain 19977; assay: Chronic M. abscessus lung infection in SCID mice, inhaled treatment, lung CFU; assay type: in vivo, SCID/Beige mice
Experimental: In vivo studies were conducted in mice to separately model chronic M. abscessus infection. The animals were treated for 28 days and grouped according to dosage: vehicle, low dose BisEDT, high dose BisEDT, and amikacin. At the end of treatment, blood, lungs were collected for analysis. […] Histopathology was conducted on lung samples from the in vivo studies.
A total of sixty female SCID/Beige mice between 6-8 weeks of age were used. Mice were placed up to 4 animals per cage and allowed 1 week of acclimation prior to infection.
Inoculums of M. abscessus strain 19977 (MAB) used in this study were made from highly virulent frozen stocks with low passage numbers. Bacteria were allowed to grow to log phase after 4 days on 7H10 media agar plates at 37° C. Once confluent, inoculums were made by suspending bacteria at 10^9 in Hank's balanced salt solution (HBSS) as determined by optical density (O.D.) and further quantified by serial dilution to determine the CFU/mL of suspension. At this higher concentration of bacteria, only 20 μL of inoculum was necessary to deposit […] bacteria per mouse.
On the day of infection mice were anesthetized with isoflurane by the drop jar method. Mice were scruffed in a standard one-handed grip and the nose of the mouse is held of a tube containing gauze containing a small amount of isoflurane. Mice were monitored for breathing and once rapid breaths have slowed down initially the mouse is removed from direct anesthesia and 20 μL of bacterial suspension was deposited on the left nostril. The mice then slowly breath in the droplet. Each mouse was then held in hand until complete consciousness was obtained and then the mouse was replaced into its home cage. After infection was initiated, 3 weeks were allowed to pass in order to allow the bacteria to establish a chronic lung pathology for eventual treatment.
After establishing each infection, 12 mice were euthanized the day before treatment began to determine the baseline bacterial load. Mice were euthanized using CO2 in accordance with the recommendations of the Guide for the Care and Use of Laboratory Animals (NRC 2011). Lungs were collected and homogenized then serial diluted for CFU enumeration.
A nose-only inhalation exposure chamber from CH technologies was used for this experiment. Mice were split into four treatment groups, Vehicle (buffer containing no BisEDT), amikacin (100 μg/kg/day), BisEDT “low” (200 μg/kg/day), and BisEDT “high” (1000 μg/kg/day). Each treatment group consisted of 12 mice. […]
After 28 days of treatment with BisEDT, animals were euthanized by CO2 and secondary cardiac puncture to collect whole blood for quantitation of BisEDT concentration. […] CFUs were determined after serial dilution. […]

C1C[S][Bi]([S]CC[S][Bi]2[S]CC[S]2)[S]1 [BisEDT, 1,2-(Bis(1,3-dithia-2-bismolane)thio)ethane]
body weight at the end of treatment [1]: within the normal weight range | tolerability [1]: well tolerated | expression of TGF-β [2]: consistent reduction | activity against M. abscessus in the macrophage system [3]: very active (bactericidal) | expression of IL-1β in BALF [4]: Consistent reduction | expression of IL-17A in BALF [4]: Consistent reduction | expression of TNF-α in BALF [4]: Consistent reduction | peak VMD [5]: about 1.3 microns | CFU count in lung homogenates ([6]; 200 μg/kg (low)): bacteriostatic effect | CFU count in lung homogenates ([6]; 1000 μg/kg (high) delivered to the lungs): bactericidal | lung CFU, high-dose group vs vehicle control ([6]; 1000 μg/kg/day, p-value=0.0163): statistically significant difference | lung CFU ([6]; inhaled 200 and 1000 μg/kg/day, 28 days, Kruskal-Wallis test): dose-dependent response
